Measured values as given in ChEMBL document CHEMBL1201862, “PubChem BioAssay data set” (2004).
Calls of active or inactive are those of the source.

Columns and labels:
HEK293 [1] = test: NOD1 signaling inhibitors, primary screen, cell-based, luminescence, uHTS (AID 1578); format: functional; details: Homo sapiens
HEK293 [2] = test: cells; format: functional, cell-based; details: Homo sapiens
HEK293 [3] = test: cells; format: functional, cell-based; details: Homo sapiens; remark: listed apart in the source
HEK293 [4] = test: NOD2 signaling inhibitors in MDP-stimulated cells, cell-based, uHTS, luminescence (AID 2001); format: functional; details: Homo sapiens
Tumor necrosis factor = Tumor necrosis factor (Homo sapiens, UniProt P01375); test: TNFa-triggered NF-kB activation inhibitors, SAR follow-up, cell-based, revised (AID 2337); format: functional
[5] = molecular target: T1, Nucleotide-binding oligomerization domain-containing protein 1 (Homo sapiens, UniProt Q9Y239); test: NOD1 signaling inhibitors, SAR follow-up, revised (AID 2333); format: functional
T1 sequence (Q9Y239 whole entry): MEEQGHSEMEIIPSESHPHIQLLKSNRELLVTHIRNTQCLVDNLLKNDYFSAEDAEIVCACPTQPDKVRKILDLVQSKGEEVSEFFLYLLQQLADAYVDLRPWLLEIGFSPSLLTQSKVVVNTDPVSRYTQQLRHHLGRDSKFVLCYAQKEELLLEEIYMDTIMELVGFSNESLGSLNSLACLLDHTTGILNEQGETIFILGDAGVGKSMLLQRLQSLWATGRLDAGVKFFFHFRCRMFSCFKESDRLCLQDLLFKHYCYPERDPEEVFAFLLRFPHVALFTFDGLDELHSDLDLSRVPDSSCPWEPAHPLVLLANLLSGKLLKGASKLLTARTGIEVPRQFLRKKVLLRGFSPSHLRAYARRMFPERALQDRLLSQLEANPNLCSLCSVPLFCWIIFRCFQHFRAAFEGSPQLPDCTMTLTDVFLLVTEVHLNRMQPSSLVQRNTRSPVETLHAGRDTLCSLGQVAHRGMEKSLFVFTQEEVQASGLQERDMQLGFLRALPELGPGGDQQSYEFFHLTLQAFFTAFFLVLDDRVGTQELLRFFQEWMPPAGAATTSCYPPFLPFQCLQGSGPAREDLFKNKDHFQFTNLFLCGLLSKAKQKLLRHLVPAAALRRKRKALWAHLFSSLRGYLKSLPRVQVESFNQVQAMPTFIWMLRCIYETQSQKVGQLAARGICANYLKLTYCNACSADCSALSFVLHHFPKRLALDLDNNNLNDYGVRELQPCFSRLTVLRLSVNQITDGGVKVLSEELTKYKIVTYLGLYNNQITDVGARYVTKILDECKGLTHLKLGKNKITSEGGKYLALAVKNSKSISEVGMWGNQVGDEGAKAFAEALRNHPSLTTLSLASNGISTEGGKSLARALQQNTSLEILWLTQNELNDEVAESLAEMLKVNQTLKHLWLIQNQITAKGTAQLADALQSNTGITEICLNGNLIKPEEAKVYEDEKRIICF

[6] = Shn3 3'UTR reporter inhibitors, dose response, cell-based, Clone20 osteoblasts, firefly luciferase, cherry-picked (AID 624132); format: functional;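 note: firefly luciferase luminescence from reporter carrying the Shn3 3'UTR in osteoblasts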
[7] = HepG2 cell cytotoxicity, dose response, cytotoxicity control for Shn3 inhibitor project, CellTiter-Glo, cherry-picked (AID 624134); format: functional, cell-based
[8] = control 3'UTR Renilla luciferase suppression, dose response, counter-screen for Shn3 inhibitor project, cell-based, Clone20-Shn3RL, cherry-picked (AID 624133); format: functional
HEK293 [9] = test: cells; details: Homo sapiens
Beta-galactosidase = Beta-galactosidase (Escherichia coli, UniProt Q8VNN2); test: PubChem AID 485352; format: functional
[10] = molecular target: T2, Type-1 angiotensin II receptor (Homo sapiens, UniProt P30556); test: AT1 receptor antagonists, dose response, selectivity assay for APJ receptor antagonist project, cell-based, uHTS hits (AID 463214); format: functional;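 note: antagonist potency against angiotensin II stimulated AT1 response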
T2 sequence (P30556 whole entry): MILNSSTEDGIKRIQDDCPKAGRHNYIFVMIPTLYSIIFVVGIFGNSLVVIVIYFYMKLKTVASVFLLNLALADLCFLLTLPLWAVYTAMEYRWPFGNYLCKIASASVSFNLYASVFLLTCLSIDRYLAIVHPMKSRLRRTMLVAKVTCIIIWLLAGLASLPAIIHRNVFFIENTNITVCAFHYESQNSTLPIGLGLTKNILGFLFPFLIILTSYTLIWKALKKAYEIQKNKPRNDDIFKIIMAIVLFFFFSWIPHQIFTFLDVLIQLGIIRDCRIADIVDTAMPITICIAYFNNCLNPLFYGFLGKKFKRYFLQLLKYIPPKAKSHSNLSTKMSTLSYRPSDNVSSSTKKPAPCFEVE

Cytochrome P450 3A4 [11] = molecular target: T3, Cytochrome P450 3A4 (Homo sapiens, UniProt P08684)
[12] = molecular target: T4, Endoribonuclease toxin MazF (Escherichia coli K-12, UniProt P0AE70); test: MazF toxin RNase activators, dose response, biochemical, fluorescence, single-stranded RNA substrate, uHTS hits (AID 588481); format: functional
T4 sequence (P0AE70 whole entry): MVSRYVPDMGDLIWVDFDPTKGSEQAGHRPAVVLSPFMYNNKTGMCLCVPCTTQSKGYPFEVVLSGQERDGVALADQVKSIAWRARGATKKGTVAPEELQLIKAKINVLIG

Insulin-degrading enzyme [13] = molecular target: T5, Insulin-degrading enzyme (Homo sapiens, UniProt P14735); test: activators of recombinant IDE enzyme, dose response, counter-screen for IDE activator project, biochemical, fluorescence polarization (AID 588681)
T5 sequence (P14735 whole entry): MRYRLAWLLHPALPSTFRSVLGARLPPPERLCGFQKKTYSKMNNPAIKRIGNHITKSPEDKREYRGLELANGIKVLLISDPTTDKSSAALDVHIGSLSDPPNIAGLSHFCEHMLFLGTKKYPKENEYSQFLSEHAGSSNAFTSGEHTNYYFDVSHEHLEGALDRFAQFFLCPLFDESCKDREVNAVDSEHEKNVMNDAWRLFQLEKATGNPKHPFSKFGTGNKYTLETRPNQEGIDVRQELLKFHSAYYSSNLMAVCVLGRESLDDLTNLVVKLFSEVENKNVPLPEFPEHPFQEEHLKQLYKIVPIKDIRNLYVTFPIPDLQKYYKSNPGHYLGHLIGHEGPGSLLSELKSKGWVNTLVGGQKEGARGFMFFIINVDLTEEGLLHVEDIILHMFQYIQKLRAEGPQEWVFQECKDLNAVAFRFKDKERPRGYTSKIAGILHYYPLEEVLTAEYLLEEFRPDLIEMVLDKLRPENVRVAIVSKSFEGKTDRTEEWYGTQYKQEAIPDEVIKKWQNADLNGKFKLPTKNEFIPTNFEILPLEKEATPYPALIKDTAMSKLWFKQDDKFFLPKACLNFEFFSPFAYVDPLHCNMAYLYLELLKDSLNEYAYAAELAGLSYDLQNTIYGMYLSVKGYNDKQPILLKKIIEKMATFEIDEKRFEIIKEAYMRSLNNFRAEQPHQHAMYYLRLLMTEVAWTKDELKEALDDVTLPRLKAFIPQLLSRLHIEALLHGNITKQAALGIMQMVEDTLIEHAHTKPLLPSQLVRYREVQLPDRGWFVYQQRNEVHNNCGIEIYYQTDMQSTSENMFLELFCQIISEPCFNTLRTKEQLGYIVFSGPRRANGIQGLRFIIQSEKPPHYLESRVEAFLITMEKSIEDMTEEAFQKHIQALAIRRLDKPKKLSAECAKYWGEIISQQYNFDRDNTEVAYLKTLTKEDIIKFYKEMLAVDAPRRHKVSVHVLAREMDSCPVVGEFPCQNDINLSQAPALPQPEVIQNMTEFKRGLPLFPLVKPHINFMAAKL

Insulin-degrading enzyme [14] = molecular target: T5, Insulin-degrading enzyme; test: activators of endogenous IDE in HEK cells, dose response, cell-based, fluorescence polarization (AID 588439); format: functional
[15] = molecular target: T4, Endoribonuclease toxin MazF; test: fluorescent RNA oligo signal without MazF, dose response, counter-screen for MazEF activator project, biochemical, fluorescence, single-stranded RNase substrate (AID 588502); format: functional
HEK293 [16] = test: HEK cell cytotoxicity by LDH release, dose response, cytotoxicity control for IDE activator project, fluorescence, HEK cells (AID 588440); format: functional, cell-based; details: Homo sapiens;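 note: cytotoxicity by LDH release measuring loss of membrane integrity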
HEK293 [17] = test: optical interference in Abeta FP readout, dose response, artefact control for IDE activator project, biochemical, fluorescence polarization (AID 588442); format: functional, cell-based; details: Homo sapiens
Cytochrome P450 3A4 [18] = molecular target: T3, Cytochrome P450 3A4; details: Potency
Melanocortin receptor 4 = Melanocortin receptor 4 (Homo sapiens, UniProt P32245); test: MC4R antagonist potency on cAMP, dose response, cell-based, TR-FRET, biased antagonists (AID 602298); format: functional;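 note: antagonist potency against agonist-stimulated cAMP production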
[19] = nonselective inhibitors of cellular cAMP signaling, dose response, counter-screen for MC4R biased antagonist project, cell-based, TR-FRET cAMP detection (AID 602305); format: functional;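 note: U2OS cells stimulated with forskolin near its EC80 as the cAMP inducer; potency is for inhibition of forskolin-stimulated cAMP signaling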

T3 sequence (P08684 whole entry): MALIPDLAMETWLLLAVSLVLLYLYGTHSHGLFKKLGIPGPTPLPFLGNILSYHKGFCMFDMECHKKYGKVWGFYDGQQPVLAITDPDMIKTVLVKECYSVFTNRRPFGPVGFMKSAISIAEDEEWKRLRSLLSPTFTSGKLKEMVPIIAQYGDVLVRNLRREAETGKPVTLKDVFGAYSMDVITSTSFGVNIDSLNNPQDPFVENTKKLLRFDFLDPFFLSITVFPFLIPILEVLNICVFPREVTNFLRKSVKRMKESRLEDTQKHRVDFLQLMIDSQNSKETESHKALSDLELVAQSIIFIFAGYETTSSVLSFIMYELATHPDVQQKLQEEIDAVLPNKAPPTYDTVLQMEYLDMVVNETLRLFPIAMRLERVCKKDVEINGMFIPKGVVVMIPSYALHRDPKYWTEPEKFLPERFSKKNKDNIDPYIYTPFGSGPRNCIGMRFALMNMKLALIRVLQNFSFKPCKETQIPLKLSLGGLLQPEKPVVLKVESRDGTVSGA
Beta-galactosidase, sequence (Q8VNN2 whole entry): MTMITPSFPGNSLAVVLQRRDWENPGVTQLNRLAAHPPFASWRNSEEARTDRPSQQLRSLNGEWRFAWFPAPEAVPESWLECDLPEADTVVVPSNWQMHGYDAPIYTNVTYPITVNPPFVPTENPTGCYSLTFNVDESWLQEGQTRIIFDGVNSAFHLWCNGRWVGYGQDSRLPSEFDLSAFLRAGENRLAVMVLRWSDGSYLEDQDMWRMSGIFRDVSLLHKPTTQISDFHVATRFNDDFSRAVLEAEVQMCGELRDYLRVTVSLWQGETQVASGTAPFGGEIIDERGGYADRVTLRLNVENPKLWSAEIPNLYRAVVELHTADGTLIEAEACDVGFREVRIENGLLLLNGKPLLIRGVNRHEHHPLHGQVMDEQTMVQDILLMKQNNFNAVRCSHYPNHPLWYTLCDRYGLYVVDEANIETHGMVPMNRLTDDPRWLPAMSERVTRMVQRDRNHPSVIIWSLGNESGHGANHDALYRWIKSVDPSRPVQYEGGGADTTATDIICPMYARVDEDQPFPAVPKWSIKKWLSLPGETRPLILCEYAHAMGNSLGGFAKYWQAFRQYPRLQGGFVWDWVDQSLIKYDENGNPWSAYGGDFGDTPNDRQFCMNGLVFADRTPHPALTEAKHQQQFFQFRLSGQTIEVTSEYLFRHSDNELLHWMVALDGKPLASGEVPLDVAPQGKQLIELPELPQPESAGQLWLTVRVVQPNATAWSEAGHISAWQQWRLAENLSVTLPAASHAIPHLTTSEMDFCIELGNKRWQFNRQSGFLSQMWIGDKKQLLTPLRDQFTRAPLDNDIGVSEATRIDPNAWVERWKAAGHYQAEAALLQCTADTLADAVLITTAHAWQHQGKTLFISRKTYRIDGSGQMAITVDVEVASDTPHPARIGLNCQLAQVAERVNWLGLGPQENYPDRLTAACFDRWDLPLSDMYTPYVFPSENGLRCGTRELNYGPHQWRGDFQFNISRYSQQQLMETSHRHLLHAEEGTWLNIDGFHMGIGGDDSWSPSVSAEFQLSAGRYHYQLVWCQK
Melanocortin receptor 4, sequence (P32245 whole entry): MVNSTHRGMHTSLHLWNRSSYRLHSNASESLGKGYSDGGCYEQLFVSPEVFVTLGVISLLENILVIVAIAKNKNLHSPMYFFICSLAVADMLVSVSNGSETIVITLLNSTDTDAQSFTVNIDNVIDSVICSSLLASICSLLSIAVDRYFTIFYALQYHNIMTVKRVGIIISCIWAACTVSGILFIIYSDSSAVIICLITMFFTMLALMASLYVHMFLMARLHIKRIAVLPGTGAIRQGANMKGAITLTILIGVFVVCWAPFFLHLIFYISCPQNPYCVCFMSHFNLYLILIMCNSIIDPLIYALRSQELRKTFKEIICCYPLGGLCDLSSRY
Tumor necrosis factor, sequence (P01375 whole entry, the tested form may be a part): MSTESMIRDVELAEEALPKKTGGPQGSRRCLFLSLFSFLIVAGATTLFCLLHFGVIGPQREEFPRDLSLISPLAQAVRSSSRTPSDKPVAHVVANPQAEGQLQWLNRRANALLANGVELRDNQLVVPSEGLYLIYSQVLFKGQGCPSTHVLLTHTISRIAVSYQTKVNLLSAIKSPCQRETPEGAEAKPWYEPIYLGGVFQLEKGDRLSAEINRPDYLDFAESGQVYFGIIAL

In the case of `COCC1CCN(C(=O)c2cc(COc3ccc4ncccc4c3)on2)CC1`, the EC50 (HEK293 [1]) is reported as 2.31 µM (active), the IC50 (HEK293 [2]) is reported as 8.36 µM (active) and the IC50 (HEK293 [3]) is reported as > 20 µM (inactive). For the same compound, the IC50 (HEK293 [4]) was 14.8 µM (inactive), the IC50 (Tumor necrosis factor) was 4.81 µM (active) and the IC50 [5] was 3.13 µM (active). For the same compound, the AC50 [6] was 2.7 µM (active), the AC50 [7] was 42.1 µM (active) and the AC50 [8] was 10.5 µM (active). The IC50 (HEK293 [9]) was > 20 µM (inactive).

For `Cc1ccc(OCCN2C(=O)c3ccccc3C2=O)c([N+](=O)[O-])c1`, the EC50 (Beta-galactosidase) was > 40 µM (inactive) and the IC50 [10] was 9.04 µM (active).

In the case of `COc1ccc(C(=O)N2CCC3(CCN(Cc4nccs4)CC3)CC2)cc1`, the AC50 (Cytochrome P450 3A4 [11]) is reported as “inconclusive”.

For `Oc1ccc2c(c1)OCC1(O)Cc3cc(O)c(O)cc3C21` (stereo not drawn), the EC50 [12] was > 99 µM (inactive), the EC50 (Insulin-degrading enzyme [13]) was > 54.7 µM (inactive) and the EC50 (Insulin-degrading enzyme [14]) was > 54.7 µM (inactive). The EC50 [15] was 3.96 µM (active), the IC50 (HEK293 [16]) was 85.1 µM (inactive) and the EC50 (HEK293 [17]) was 53.6 µM (inactive). The AC50 (Cytochrome P450 3A4 [18]) was 31.6 µM (inconclusive).

In the case of `O=C(c1cnccn1)N1CCC2(CC1)CCN(c1ncccn1)CC2`, the AC50 (Cytochrome P450 3A4 [11]) is reported as “inconclusive”.

In the case of `Cc1sc2nc(CN3CCOCC3)nc(Cl)c2c1C`, the IC50 (Melanocortin receptor 4) is reported as > 64.5 µM (inactive) and the IC50 [19] is reported as > 64.5 µM (inactive).
